In US20230096766A1, “AMINO ACID HAVING FUNCTIONAL GROUP CAPABLE OF INTERMOLECULAR HYDROGEN BONDING, PEPTIDE COMPOUND CONTAINING SAME AND METHOD FOR PRODUCTION THEREOF” (Chugai Seiyaku Kabushiki Kaisha, priority 2018, published 2023):
*1 amine or outer side, *2 acyl side, *3 side chain or, on linkers, in order; H or OH if unused. Where a SMILES comes first, the peptide text is derived from it. Bridges are numbered along the chain shown (N, C = ends). [ ]: non-standard residue; d: D form. The star is where a group is joined. ξ: configuration not given here. Phe(3-OMe,4-CONHMs) = COc1cc(C[C@H](N)C(=O)O)ccc1C(=O)NS(C)(=O)=O; NMeHph(3-OMe-4-CONHMe) = CNC(=O)c1ccc(CC[C@H](NC)C(=O)O)cc1OC; NMeAbu(3,3-F2-piperidino) = CN[C@@H](CCN1CCCC(F)(F)C1)C(=O)O; Phe(4-COOH) = N[C@@H](Cc1ccc(C(=O)O)cc1)C(=O)O; X11 = CNC(=O)c1ccc(CCN(CC(=O)[*:2])[*:1])cc1OC; NMePhe(3-Cl) = CN[C@@H](Cc1cccc(Cl)c1)C(=O)O; NMehPhe = CN[C@@H](CCc1ccccc1)C(=O)O; X7 = O=C(C[C@H](COCCO)N[*:1])[*:2]; Hyp = O=C(O)[C@@H]1C[C@@H](O)CN1; NMeF = CN[C@@H](Cc1ccccc1)C(=O)O; NMeGABA = CN(CCCC(=O)[*:2])[*:1]; CH2CH(OH)CF3 = OC(C*)C(F)(F)F; NMeL = CN[C@@H](CC(C)C)C(=O)O; Butyl(3R-OH) = C[C@@H](O)CC*; Butyl(3S-OH) = C[C@H](O)CC*; NMeV = CN[C@H](C(=O)O)C(C)C; NMeAbu = CC[C@H](NC)C(=O)O; NMeA = CN[C@@H](C)C(=O)O; Piperidide = C1CCN(*)CC1; Me2NCH2CH2 = CN(C)CC*; NBuGly = CCCCNCC(=O)O; NPrGly = CCCNCC(=O)O; Ethyl(2-OH) = OCC*; ξS = NC(CO)C(=O)O; N(OH)Me = CN(O)*; Sar = CNCC(=O)O; tBu = CC(C)(C)*

assay: in vitro; details: human, Caco-2, Caco-2

| SMILES | Papp [×10⁻⁶ cm/s] |
| --- | --- |
| CCCCN1CC(=O)N(C)[C@@H](CC(C)C)C(=O)N[C@@H](COC(C)(C)C)C(=O)N(C)[C@@H](Cc2ccccc2)C(=O)N(C)[C@@H](C(C)C)C(=O)N[C@H](C(=O)N2CCCCC2)CC(=O)N[C@H](C)C(=O)N(C)[C@@H](Cc2ccccc2)C(=O)N[C@@H](CC(C)C)C(=O)N(C)[C@@H](CCN2CCCC(F)(F)C2)C(=O)N[C@@H]([C@@H](C)O)C1=O [pd386] ([dA][NMeF]L[NMeAbu(3,3-F2-piperidino)]T[NBuGly][NMeL]S(tBu)[NMeF][NMeV]D-Piperidide; lactam N-11) | 2.3 |
| CCCN1CC(=O)N(C)[C@@H](C(C)C)C(=O)N[C@H](C(=O)N2CCCCC2)CC(=O)N(C)[C@@H](C)C(=O)N[C@@H](CC(C)C)C(=O)N(C)[C@@H](CC(C)C)C(=O)N(C)[C@@H](Cc2ccccc2)C(=O)NC(COCCN(C)C)C(=O)N(C)[C@@H](Cc2ccccc2)C(=O)N(C)[C@@H](CC(C)C)C(=O)N[C@@H]([C@@H](C)O)C1=O (stereo partly drawn) [pd57] ([NMeA]L[NMeL][NMeF][ξS](Me2NCH2CH2)[NMeF][NMeL]T[NPrGly][NMeV]D-Piperidide; lactam N-11) | 0.12 |

same assay, conditions: human, Caco-2, Caco-2 (cm/sec)

| SMILES | Papp [×10⁻⁶ cm/s] |
| --- | --- |
| CC(C)C[C@H]1C(=O)N[C@@H](COCC[C@@H](C)O)C(=O)N(C)[C@@H](Cc2ccccc2)C(=O)N(C)[C@@H](Cc2cccc(Cl)c2)C(=O)N[C@@H](COC(C)(C)C)C(=O)N(C)[C@@H](CC(C)C)C(=O)N[C@@H]([C@@H](C)O)C(=O)N(C)[C@@H](CC(C)C)C(=O)N(C)[C@@H](CC(C)C)C(=O)N[C@H](C(=O)N2CCCCC2)CC(=O)N(C)CCCC(=O)N1C [AP115] ([NMeGABA][NMeL]S(Butyl(3R-OH))[NMeF][NMePhe(3-Cl)]S(tBu)[NMeL]T[NMeL][NMeL]D-Piperidide; lactam N-11) | 0.27 |
| CCCCN1CC(=O)N(C)[C@@H](CC(C)C)C(=O)N(C)[C@@H](CC(C)C)C(=O)N[C@@H](COC(C)(C)C)C(=O)N(C)[C@@H](CC(C)C)C(=O)N[C@H](C(=O)N2CCCCC2)CC(=O)N(C)CC(=O)N(C)[C@@H](Cc2cccc(Cl)c2)C(=O)N[C@@H](Cc2ccc(C(=O)NS(C)(=O)=O)c(OC)c2)C(=O)N(C)[C@@H](CC(C)C)C(=O)N[C@@H]([C@@H](C)O)C1=O [AP140] ([Sar][NMePhe(3-Cl)][Phe(3-OMe,4-CONHMs)][NMeL]T[NBuGly][NMeL][NMeL]S(tBu)[NMeL]D-Piperidide; lactam N-11) | 0.49 |
| CC(C)C[C@@H]1NC(=O)[C@H](CC(C)C)N(C)C(=O)[C@H](CC(C)C)N(C)C(=O)[C@H](COC(C)(C)C)NC(=O)[C@H](CC(C)C)N(C)C(=O)[C@@H](C(C)C)NC(=O)C[C@@H](C(=O)N2CCCCC2)NC(=O)[C@H](CC(C)C)N(C)C(=O)[C@H](Cc2ccccc2)NC(=O)[C@@H]2C[C@@H](OCCO)CN2C(=O)[C@H]([C@@H](C)O)NC1=O [AP237] ([dV][NMeL]S(tBu)[NMeL][NMeL]LT[Hyp](Ethyl(2-OH))F[NMeL]D-Piperidide; lactam N-11) | 1.3 |
| CC(C)C[C@H]1C(=O)N[C@@H](C(C)C)C(=O)N(C)[C@@H](Cc2ccccc2)C(=O)N(C)[C@@H](Cc2cccc(Cl)c2)C(=O)NC(COCC[C@H](C)O)C(=O)N(C)[C@@H](CC(C)C)C(=O)N[C@@H]([C@@H](C)O)C(=O)N(C)[C@@H](CC(C)C)C(=O)N(C)[C@@H](CC(C)C)C(=O)N[C@H](C(=O)N2CCCCC2)CC(=O)N(C)CCCC(=O)N1C (stereo partly drawn) [AP102] ([NMeGABA][NMeL]V[NMeF][NMePhe(3-Cl)][ξS](Butyl(3S-OH))[NMeL]T[NMeL][NMeL]D-Piperidide; lactam N-11) | 0.43 |
| CC[C@H](C)[C@@H]1NC(=O)[C@H](CC(C)C)N(C)C(=O)CCCN(C)C(=O)C[C@@H](C(=O)N2CCCCC2)NC(=O)[C@H](CC(C)C)N(C)C(=O)[C@H](CC(C)C)N(C)C(=O)[C@H]([C@@H](C)O)NC(=O)[C@H](CC(C)C)N(C)C(=O)[C@H](Cc2ccc(C(=O)N(C)O)cc2)NC(=O)[C@H](CC(C)C)N(C)C(=O)[C@H](Cc2ccccc2)N(C)C1=O [AP251] ([NMeGABA][NMeL]I[NMeF][NMeL][Phe(4-COOH)](N(OH)Me)[NMeL]T[NMeL][NMeL]D-Piperidide; lactam N-11) | 0.03 |
| CC[C@H](C)[C@@H]1NC(=O)[C@H](CC(C)C)N(C)C(=O)CCCN(C)C(=O)C[C@@H](C(=O)N2CCCCC2)NC(=O)[C@H](CC(C)C)N(C)C(=O)[C@H](CC(C)C)N(C)C(=O)[C@H]([C@@H](C)O)NC(=O)[C@H](CC(C)C)N(C)C(=O)[C@H](COC(C)(C)C)NC(=O)[C@H](Cc2ccccc2)N(C)C(=O)[C@H](CCc2ccc(C(=O)NC)c(OC)c2)N(C)C1=O [AP227] ([NMeGABA][NMeL]I[NMeHph(3-OMe-4-CONHMe)][NMeF]S(tBu)[NMeL]T[NMeL][NMeL]D-Piperidide; lactam N-11) | 0.48 |
| CC(C)C[C@@H]1NC(=O)[C@H](Cc2ccccc2)N(C)C(=O)[C@H](COC(C)(C)C)NC(=O)[C@H](Cc2ccccc2)N(C)C(=O)[C@H](C)N(C)C(=O)[C@H](CC(C)C)N(C)C(=O)[C@@H](C)NC(=O)C[C@@H](C(=O)N2CCCCC2)NC(=O)[C@H](Cc2ccccc2)N(C)C(=O)[C@H]([C@@H](C)O)NC(=O)[C@H](CC(C)C)N(C)C1=O [pd220] ([dA][NMeL][NMeA][NMeF]S(tBu)[NMeF]L[NMeL]T[NMeF]D-Piperidide; lactam N-11) | 1.1 |
| CC(C)C[C@@H]1NC(=O)[C@H](CCc2ccccc2)N(C)C(=O)[C@H](CCc2ccccc2)N(C)C(=O)[C@H](COCCO)NC(=O)[C@H](CC(C)C)N(C)C(=O)CCCN(C)C(=O)C[C@@H](C(=O)N2CCCCC2)NC(=O)[C@H](CC(C)C)N(C)C(=O)[C@H](CC(C)C)N(C)C(=O)[C@H]([C@@H](C)O)NC(=O)[C@H](CC(C)C)N(C)C1=O [Compound A03] ([NMeGABA][NMeL]S(Ethyl(2-OH))[NMehPhe][NMehPhe]L[NMeL]T[NMeL][NMeL]D-Piperidide; lactam N-11) | 0.32 |
| CCCCN1CC(=O)N(C)[C@@H](CC(C)C)C(=O)N[C@@H](COCCO)CC(=O)N(C)[C@@H](Cc2ccccc2)C(=O)N(C)[C@@H](CC(C)C)C(=O)N[C@H](C(=O)N2CCCCC2)CC(=O)N[C@H](CC(C)C)C(=O)N(C)[C@@H](CC(C)C)C(=O)N[C@@H](Cc2ccccc2)C(=O)N(C)[C@@H](CC(C)C)C(=O)N[C@@H]([C@@H](C)O)C1=O [AP21] ([dL][NMeL]F[NMeL]T[NBuGly][NMeL][X7][NMeF][NMeL]D-Piperidide; lactam N-11) | 0.21 |
| CC[C@H]1C(=O)N[C@@H](CC(C)C)C(=O)N(C)[C@@H](CC(C)C)C(=O)N(C)[C@@H](Cc2ccccc2)C(=O)N[C@@H](CC(C)C)C(=O)N(C)[C@@H](CC(C)C)C(=O)N(CCc2ccc(C(=O)NC)c(OC)c2)CC(=O)N[C@@H]([C@@H](C)O)C(=O)N(C)CC(=O)N(C)[C@@H](CC(C)C)C(=O)N[C@H](C(=O)N2CCCCC2)CC(=O)N1C [AP223] ([NMeAbu]L[NMeL][NMeF]L[NMeL][X11]T[Sar][NMeL]D-Piperidide; lactam N-11) | 1.6 |

same assay, conditions: human, Caco-2, Caco-2 (membrane permeability)

| SMILES | Papp [×10⁻⁶ cm/s] |
| --- | --- |
| CCCCN1CC(=O)N(C)[C@@H](Cc2ccccc2)C(=O)N(C)[C@@H](CC(C)C)C(=O)N[C@@H](COC(C)(C)C)C(=O)N(C)[C@@H](CC(C)C)C(=O)N[C@H](C(=O)N2CCCCC2)CC(=O)N(C)CC(=O)N(C)[C@@H](Cc2cccc(Cl)c2)C(=O)N[C@@H](COCC(O)C(F)(F)F)C(=O)N(C)[C@@H](CC(C)C)C(=O)N[C@@H]([C@@H](C)O)C1=O (stereo partly drawn) [Compound C06] ([Sar][NMePhe(3-Cl)]S(CH2CH(OH)CF3)[NMeL]T[NBuGly][NMeF][NMeL]S(tBu)[NMeL]D-Piperidide; lactam N-11) | 0.48 |
